{
  "source": "patent US20230158064A1",
  "about": "(priority 2020, published 2023)",
  "key": {"[1]": {"system": "COVID-19 (SARS-CoV-2)", "experiment": "Example 2: INOpulse (pulsed iNO) expanded access series in hospitalized patients with hypoxemia due to COVID-19", "assay_type": "in vivo", "details": "for ratio of oxygen saturation to fraction of inspired oxygen (SpO2/FiO2), median: FiO2 estimated from oxygen flow"}, "[2]": {"system": "COVID-19", "experiment": "Example 1: randomized open-label study of pulsed iNO versus standard of care in COVID-19, initial data", "assay_type": "in vivo", "details": "three COVID-19 patients that completed the regimen", "protocol": "This example discloses a randomized, open-label study to assess the efficacy and safety of pulsed iNO compared to standard of care (SOC) in subjects with COVID-19 who are hospitalized and require supplemental oxygen without assisted ventilation. Up to 500 subjects are randomized to receive either (a) iNO 125 mcg/kg IBW/hr for at least 8 hours and up to 24 hours daily for 3 days to 14 days or until resolution or discharge at the discretion of the Investigator, or (b) standard of care. No placebo arm is used. Subjects are followed through Day 28 to assess their clinical status. The primary objective in this study is to verify the efficacy of iNO in subjects with COVID-19. The secondary objective in this study is to evaluate the safety of iNO in subjects with COVID-19.\nOutcomes are assessed using an outcome scale assessed 14 days after randomization.\nPrior to receiving treatment with iNO, subjects were screened to confirm eligibility. […] Subjects in the iNO group are treated by means of an INOpulse device using a readily available cannula on site.\nAt day 0 of the study, subjects testing positive for COVID-19 are evaluated for vital signs, blood chemistry, and a chest x-ray or CT scan, and an overall physical exam is performed. Daily vital signs, oxygen measurements (pulse oximetry), methemoglobin levels, and adverse events are assessed through the entire course of treatment. […]"}, "[3]": {"system": "severe acute respiratory syndrome-related coronavirus (SARS-CoV)", "details": "cited from earlier work"}, "[4]": {"system": "cells infected with SARS-CoV", "details": "cited from earlier work"}, "[5]": {"system": "SARS", "details": "human, in vivo; cited from earlier work"}, "[6]": {"details": "one subject (CVD19-029), higher dose 250 mcg/kg IBW/hour (approximately 40 ppm)"}, "[7]": {"details": "patients that completed iNO treatment and were discharged"}},
  "data": [
    {"smiles": "[N]=O", "note": "[iNO, nitric oxide]", "values": [
      {"measurement": "Oxygen Saturation (SpO2), Median", "setting": "[1]; Discharge", "result": 95, "unit": "%"},
      {"measurement": "Oxygen Therapy (L/min), Median", "setting": "[1]; Discharge, n=20", "result": 0.0, "unit": "L/min"},
      {"measurement": "8 Point Ordinal Scale, Median", "setting": "[1]; Discharge, scale of Table A", "result": 7},
      {"measurement": "Oxygen Saturation (SpO2), Median", "setting": "[1]; Post-iNO", "result": 95, "unit": "%"},
      {"measurement": "8 Point Ordinal Scale, Median", "setting": "[1]; Post-iNO (first day off iNO), scale of Table A", "result": 4},
      {"measurement": "Oxygen Therapy (L/min), Median", "setting": "[1]; Post-iNO, n=22", "result": 2.0, "unit": "L/min"},
      {"measurement": "ratio of oxygen saturation to fraction of inspired oxygen (SpO2/FiO2), median", "setting": "[1]; baseline (start of iNO)", "result": 229},
      {"measurement": "Oxygen Saturation (SpO2), Median", "setting": "[1]; iNO-End", "result": 95, "unit": "%"},
      {"measurement": "Oxygen Therapy (L/min), Median", "setting": "[1]; iNO-End, n=22", "result": 3.3, "unit": "L/min"},
      {"measurement": "8 Point Ordinal Scale, Median", "setting": "[1]; iNO-End, scale of Table A", "result": 4},
      {"measurement": "Oxygen Therapy (L/min), Median", "setting": "[1]; iNO-Start (baseline), n=24, iNO 125 mcg/kg IBW/hour", "result": 5.0, "unit": "L/min"},
      {"measurement": "Oxygen Saturation (SpO2), Median", "setting": "[1]; iNO-Start (baseline), pulse oximetry", "result": 94, "unit": "%"},
      {"measurement": "8 Point Ordinal Scale, Median", "setting": "[1]; iNO-Start, scale of Table A (1 death to 8 not hospitalized, no limitations)", "result": 4},
      {"measurement": "patients discharged from the hospital at the time of report", "setting": "[1]; of 24 COVID-19 positive patients", "result": 19, "unit": "patients"},
      {"measurement": "deaths", "setting": "[1]; of 24 patients, elderly person with severe comorbidities, iNO for less than 24 hours", "result": "one"},
      {"measurement": "ratio of oxygen saturation to fraction of inspired oxygen (SpO2/FiO2), median", "setting": "[1]; on completion of iNO", "result": 286},
      {"measurement": "clinical response", "setting": "[1]; [6]", "result": "responded well and was discharged home without supplemental oxygen"},
      {"measurement": "tolerability", "setting": "[1]; [6]", "result": "well tolerated"},
      {"measurement": "Time to Discharge from hospitalization (median, range)", "setting": "[1]; [7]", "result": "10 (6-23) Days"},
      {"measurement": "Time to Discharge from start of iNO (median, range)", "setting": "[1]; [7]", "result": "6 (3-14) Days"},
      {"measurement": "ratio of oxygen saturation to fraction of inspired oxygen (SpO2/FiO2), median", "setting": "[1]; period after iNO", "result": 346},
      {"measurement": "need for mechanical ventilation", "setting": "[2]", "result": "avoid the need for mechanical ventilation"},
      {"measurement": "oxygenation", "setting": "[2]; iNO 125 mcg/kg IBW/hr", "result": "improved oxygenation"},
      {"measurement": "replication of SARS-CoV", "setting": "[3]", "result": "inhibits the replication"},
      {"measurement": "cellular survival of cells infected with SARS-CoV", "setting": "[4]", "result": "improves cellular survival"},
      {"measurement": "arterial oxygenation", "setting": "[5]", "result": "improvements in arterial oxygenation"},
      {"measurement": "chest radiography", "setting": "[5]", "result": "reduction in density of lung infiltrates"},
      {"measurement": "supplemental oxygen and need for ventilatory support", "setting": "[5]", "result": "reduction in supplemental oxygen and need for ventilatory support"},
      {"measurement": "time to hospital discharge", "setting": "[5]", "result": "shorter time to hospital discharge"}
    ]}
  ]
}
